Data reported in ChEMBL document CHEMBL3727350, “Agents and methods for treating ischemic and other diseases” (2014).
The source made the active and inactive calls. No cut-off for these calls is given here.

Tests used:
HEK293 = experiment: Effect on Tet-induced Flag-tagged mouse TRPM7 expression in HEK293 cells; format: functional, cell-based; conditions: Homo sapiens
[1] = target: Transient receptor potential cation channel subfamily M member 7 (Mus musculus) (UniProt Q923J1); experiment: Inhibition of Tet-induced Flag-tagged mouse TRPM7 expressed in HEK293 cells assessed as inhibition of channel-mediated cell death in presence of Mg2+ incubated for 24 to 48 hrs by propidium iodide uptake assay; format: cell-based; design: concentration or dose not given beside the values
Chain of Transient receptor potential cation channel subfamily M member 7 (Mus musculus) (Q923J1 whole entry): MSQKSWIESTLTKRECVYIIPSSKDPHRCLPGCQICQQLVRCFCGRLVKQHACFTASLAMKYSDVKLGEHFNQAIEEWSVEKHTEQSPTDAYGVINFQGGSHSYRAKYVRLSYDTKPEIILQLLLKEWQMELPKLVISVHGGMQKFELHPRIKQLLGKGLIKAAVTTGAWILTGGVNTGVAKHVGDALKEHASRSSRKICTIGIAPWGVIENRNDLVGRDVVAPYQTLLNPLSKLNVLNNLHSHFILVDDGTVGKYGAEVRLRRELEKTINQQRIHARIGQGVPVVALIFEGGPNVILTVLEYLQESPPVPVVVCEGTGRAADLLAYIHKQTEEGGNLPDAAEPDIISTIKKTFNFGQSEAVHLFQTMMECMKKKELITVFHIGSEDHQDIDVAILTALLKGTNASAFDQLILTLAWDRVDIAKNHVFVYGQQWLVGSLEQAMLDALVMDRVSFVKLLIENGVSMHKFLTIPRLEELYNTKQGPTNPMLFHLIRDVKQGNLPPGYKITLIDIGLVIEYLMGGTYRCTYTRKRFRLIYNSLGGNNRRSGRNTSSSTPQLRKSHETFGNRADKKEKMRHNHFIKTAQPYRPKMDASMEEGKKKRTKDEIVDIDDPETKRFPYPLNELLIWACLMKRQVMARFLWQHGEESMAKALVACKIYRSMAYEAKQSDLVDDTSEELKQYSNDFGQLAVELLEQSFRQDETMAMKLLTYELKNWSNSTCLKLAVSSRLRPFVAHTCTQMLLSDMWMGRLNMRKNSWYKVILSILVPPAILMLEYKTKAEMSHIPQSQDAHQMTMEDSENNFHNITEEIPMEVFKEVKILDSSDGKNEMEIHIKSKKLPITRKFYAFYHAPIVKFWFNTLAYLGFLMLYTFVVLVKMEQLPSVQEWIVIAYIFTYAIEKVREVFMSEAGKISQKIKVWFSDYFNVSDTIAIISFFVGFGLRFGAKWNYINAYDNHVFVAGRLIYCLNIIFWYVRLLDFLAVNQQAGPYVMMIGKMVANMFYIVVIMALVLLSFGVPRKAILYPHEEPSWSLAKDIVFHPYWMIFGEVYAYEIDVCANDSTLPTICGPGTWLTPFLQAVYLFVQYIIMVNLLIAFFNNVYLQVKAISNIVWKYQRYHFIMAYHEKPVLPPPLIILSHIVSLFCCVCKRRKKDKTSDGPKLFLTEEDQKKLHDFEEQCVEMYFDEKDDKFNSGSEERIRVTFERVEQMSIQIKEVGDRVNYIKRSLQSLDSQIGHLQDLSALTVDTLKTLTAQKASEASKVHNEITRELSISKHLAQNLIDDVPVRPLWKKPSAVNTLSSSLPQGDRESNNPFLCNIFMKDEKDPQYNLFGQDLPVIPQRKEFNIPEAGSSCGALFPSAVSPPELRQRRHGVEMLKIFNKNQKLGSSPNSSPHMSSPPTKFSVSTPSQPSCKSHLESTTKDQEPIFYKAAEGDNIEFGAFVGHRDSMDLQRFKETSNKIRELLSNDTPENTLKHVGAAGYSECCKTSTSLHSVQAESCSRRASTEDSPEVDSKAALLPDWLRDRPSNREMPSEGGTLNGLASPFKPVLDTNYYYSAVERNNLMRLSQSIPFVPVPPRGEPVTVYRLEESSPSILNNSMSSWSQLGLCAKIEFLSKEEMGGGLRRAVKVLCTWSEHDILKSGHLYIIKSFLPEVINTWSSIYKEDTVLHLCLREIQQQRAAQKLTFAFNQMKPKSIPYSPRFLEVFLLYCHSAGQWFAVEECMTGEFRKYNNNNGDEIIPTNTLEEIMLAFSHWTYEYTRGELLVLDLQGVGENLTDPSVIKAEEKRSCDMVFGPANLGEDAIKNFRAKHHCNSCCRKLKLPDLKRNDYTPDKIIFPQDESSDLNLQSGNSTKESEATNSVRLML

[2] = Inhibition of cell proliferation of mouse B16F10 cells at 10 uM incubated for 48 to 96 hrs; format: functional; conditions: B16-F10
Mus musculus [3] = organism: Mus musculus; experiment: Inhibition of sodium channel in mouse cortical neurons assessed as effect on Na+ currents
[4] = target: Transient receptor potential cation channel subfamily M member 7 (Rattus norvegicus) (UniProt Q925B3); experiment: Inhibition of TRPM7 in Sprague-Dawley rat retinal explants dissociated and subjected to 1 hr oxygen-glucose deprivation assessed as reduction in retinal cell death at 1 and 5 uM
Chain of Transient receptor potential cation channel subfamily M member 7 (Rattus norvegicus) (Q925B3 whole entry): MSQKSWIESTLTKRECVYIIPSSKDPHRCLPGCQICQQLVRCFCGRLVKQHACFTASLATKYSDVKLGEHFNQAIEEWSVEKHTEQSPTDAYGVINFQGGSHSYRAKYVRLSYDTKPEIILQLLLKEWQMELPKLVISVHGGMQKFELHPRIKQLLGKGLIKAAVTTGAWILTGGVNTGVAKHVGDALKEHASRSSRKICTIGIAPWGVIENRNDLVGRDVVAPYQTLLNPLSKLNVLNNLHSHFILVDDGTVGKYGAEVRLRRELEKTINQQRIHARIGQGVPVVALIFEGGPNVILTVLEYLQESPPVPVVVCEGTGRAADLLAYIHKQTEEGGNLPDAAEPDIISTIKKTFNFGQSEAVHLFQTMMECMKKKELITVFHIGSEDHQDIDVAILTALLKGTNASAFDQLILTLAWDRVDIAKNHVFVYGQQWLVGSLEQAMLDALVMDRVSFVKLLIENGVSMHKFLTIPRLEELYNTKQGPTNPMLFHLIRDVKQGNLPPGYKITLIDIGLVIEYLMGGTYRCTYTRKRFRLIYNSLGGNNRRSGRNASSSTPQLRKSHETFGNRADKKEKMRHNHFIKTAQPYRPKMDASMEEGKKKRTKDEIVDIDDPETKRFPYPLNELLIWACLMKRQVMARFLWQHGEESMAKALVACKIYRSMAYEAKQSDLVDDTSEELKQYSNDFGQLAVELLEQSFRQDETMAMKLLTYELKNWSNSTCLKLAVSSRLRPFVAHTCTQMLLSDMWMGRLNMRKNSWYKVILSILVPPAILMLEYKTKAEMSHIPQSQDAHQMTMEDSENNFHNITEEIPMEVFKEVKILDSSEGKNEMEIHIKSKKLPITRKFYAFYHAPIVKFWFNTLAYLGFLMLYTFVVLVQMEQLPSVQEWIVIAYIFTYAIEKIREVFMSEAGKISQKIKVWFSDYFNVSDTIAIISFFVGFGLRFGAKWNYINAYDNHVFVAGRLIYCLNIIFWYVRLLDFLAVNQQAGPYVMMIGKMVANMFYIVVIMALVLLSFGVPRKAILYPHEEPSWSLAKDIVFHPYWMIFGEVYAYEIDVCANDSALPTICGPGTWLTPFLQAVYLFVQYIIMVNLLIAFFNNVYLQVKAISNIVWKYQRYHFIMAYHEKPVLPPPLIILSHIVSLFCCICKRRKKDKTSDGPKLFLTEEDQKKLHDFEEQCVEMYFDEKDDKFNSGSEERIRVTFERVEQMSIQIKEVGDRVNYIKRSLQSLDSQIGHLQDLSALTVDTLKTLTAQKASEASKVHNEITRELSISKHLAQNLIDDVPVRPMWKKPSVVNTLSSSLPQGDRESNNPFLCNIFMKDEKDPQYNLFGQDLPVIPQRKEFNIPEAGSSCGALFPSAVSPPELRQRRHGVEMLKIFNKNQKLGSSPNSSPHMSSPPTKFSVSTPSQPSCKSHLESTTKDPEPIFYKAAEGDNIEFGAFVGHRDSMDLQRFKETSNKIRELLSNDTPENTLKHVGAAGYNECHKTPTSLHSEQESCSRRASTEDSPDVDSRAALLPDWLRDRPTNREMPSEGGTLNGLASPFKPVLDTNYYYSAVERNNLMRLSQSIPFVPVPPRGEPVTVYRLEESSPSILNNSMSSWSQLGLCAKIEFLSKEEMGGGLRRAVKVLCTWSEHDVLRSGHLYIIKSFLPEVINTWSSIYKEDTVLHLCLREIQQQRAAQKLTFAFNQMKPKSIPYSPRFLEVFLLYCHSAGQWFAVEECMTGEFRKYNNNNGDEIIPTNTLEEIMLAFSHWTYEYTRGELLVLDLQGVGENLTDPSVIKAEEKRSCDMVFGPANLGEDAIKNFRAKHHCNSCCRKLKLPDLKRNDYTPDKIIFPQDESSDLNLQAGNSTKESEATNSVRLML

[5] = target: Transient receptor potential cation channel subfamily M member 7 (Rattus norvegicus) (UniProt Q925B3); experiment: Inhibition of TRPM7 in rat H9C2 cells assessed as reduction in channel currents at 0.3 to 30 uM by whole cell patch clamp assay; format: cell-based
[6] = target: Transient receptor potential cation channel subfamily M member 7 (Rattus norvegicus) (UniProt Q925B3); experiment: Inhibition of TRPM7 in rat H9C2 cells exposed to 6 hrs oxygen glucose deprivation condition followed by 2 hrs recovery assessed as reduction in TRPM7-mediated anoxic cell death at 0.05 to 5 uM by propidium iodide uptake assay; format: cell-based
SW13 = experiment: Inhibition of cell proliferation of human SW13 cells at 10 uM incubated for 48 to 96 hrs; format: functional
[7] = Inhibition of cell proliferation of mouse NIH/3T3 cells at 1.25 to 10 uM incubated for 72 hrs by propidium iodide staining assay; format: cell-based; conditions: nih3t3, 72 h
[8] = target: Transient receptor potential cation channel subfamily M member 7 (Rattus norvegicus) (UniProt Q925B3); experiment: Inhibition of TRPM7 in rat H9c2 cells assessed as protection against oxygen glucose deprivation-induced cell death at 0.05 to 5 uM pre-treated for 24 hrs before OGD; format: cell-based
[9] = target: Transient receptor potential cation channel subfamily M member 7 (Rattus norvegicus) (UniProt Q925B3); experiment: Inhibition of TRPM7 in rat H9c2 cells assessed as protection against oxygen glucose deprivation-induced cell death at 0.05 to 5 uM applied during OGD; format: cell-based
[10] = target: Transient receptor potential cation channel subfamily M member 7 (Mus musculus) (UniProt Q923J1); experiment: Inhibition of TRPM7 in mouse mouse primary cortical neurons exposed to 1 hrs oxygen glucose deprivation condition assessed as reduction in TRPM7-mediated anoxic cell death at 1.25 to 10 uM measured after 20 hrs by propidium iodide uptake assay; format: cell-based; conditions: Cerebral cortex neuron
[11] = target: Transient receptor potential cation channel subfamily M member 7 (Rattus norvegicus) (UniProt Q925B3); experiment: Inhibition of TRPM7 in rat H9c2 cells assessed as protection against oxygen glucose deprivation-induced cell death at 0.05 to 5 uM pre-treated for 24 hrs before OGD in presence of 1 uM nifedipine; format: cell-based
[12] = target: Transient receptor potential cation channel subfamily M member 7 (Rattus norvegicus) (UniProt Q925B3); experiment: Inhibition of TRPM7 in rat retinal explants exposed to oxygen glucose deprivation condition for 1 hr assessed as protection against TRPM7-mediated cell death at by propidium iodide uptake assay
[13] = target: Transient receptor potential cation channel subfamily M member 7 (Mus musculus) (UniProt Q923J1); experiment: Inhibition of TRPM7 in mouse primary neuronal cells exposed to oxygen glucose deprivation condition for 1 to 3 hrs assessed as reduction in TRPM7-mediated anoxic cell death dosed before oxygen glucose deprivation condition by propidium iodide uptake assay; conditions: Primary neuron
[14] = target: Transient receptor potential cation channel subfamily M member 7 (Mus musculus) (UniProt Q923J1); experiment: Inhibition of TRPM7 in mouse primary neuronal cells exposed to oxygen glucose deprivation condition for 1 to 3 hrs assessed as reduction in TRPM7-mediated anoxic cell death dosed after oxygen glucose deprivation condition by propidium iodide uptake assay; conditions: Primary neuron
[15] = target: Transient receptor potential cation channel subfamily M member 7 (Rattus norvegicus) (UniProt Q925B3); experiment: Inhibition of TRPM7 in rat H9c2 cells assessed as protection against oxygen glucose deprivation-induced cell death at 0.05 to 5 uM; format: cell-based
MDA-MB-231 = experiment: Inhibition of cell proliferation of human MDA-MB-231 cells at 10 uM incubated for 48 to 96 hrs; format: functional
HeLa = experiment: Inhibition of cell proliferation of human HeLa cells at 10 uM incubated for 48 to 96 hrs; format: functional
[16] = target: Transient receptor potential cation channel subfamily M member 7 (Mus musculus) (UniProt Q923J1); experiment: Inhibition of Tet-induced Flag-tagged mouse TRPM7 expressed in HEK293 cells assessed as reduction in channel currents at 0.3 to 30 uM by whole cell patch clamp assay; format: cell-based
[17] = target: Transient receptor potential cation channel subfamily M member 7 (Rattus norvegicus) (UniProt Q925B3); experiment: Inhibition of TRPM7 in Sprague-Dawley rat retinal explants subjected to 1 hr oxygen-glucose deprivation assessed as reduction in retinal ischemia at 5 uM
[18] = Inhibition of cell proliferation of human WERI cells at 10 uM incubated for 48 to 96 hrs; format: functional
Mus musculus [19] = experiment: Toxicity in mouse up to 150 uM, iv; format: organism-based; conditions: in vivo
[20] = target: Transient receptor potential cation channel subfamily M member 7 (Mus musculus) (UniProt Q923J1); experiment: Inhibition of TRPM7 in mouse AML12 cells assessed as protection against oxygen glucose deprivation-induced cell death at 0.5 to 5 uM; format: cell-based
Mus musculus [21] = organism: Mus musculus; experiment: Inhibition of potassium channel in mouse cortical neurons assessed as reduction in potassium currents
Mus musculus [22] = organism: Mus musculus; experiment: Inhibition of calcium channel in mouse cortical neurons assessed as effect on Ca2+ currents; format: functional
[23] = target: Transient receptor potential cation channel subfamily M member 7 (Mus musculus) (UniProt Q923J1); experiment: Inhibition of TRPM7 in mouse mouse primary cortical neurons exposed to 2 hrs oxygen glucose deprivation condition assessed as reduction in TRPM7-mediated anoxic cell death measured after 20 hrs by propidium iodide uptake assay; format: cell-based; conditions: Cerebral cortex neuron
MCF7 = experiment: Inhibition of cell proliferation of human MCF7 cells at 10 uM incubated for 48 to 96 hrs; format: functional
[24] = target: Transient receptor potential cation channel subfamily M member 7 (Rattus norvegicus) (UniProt Q925B3); experiment: Inhibition of TRPM7 in rat H9C2 cells exposed to oxygen glucose deprivation condition for 1 to 6 hrs assessed as reduction in TRPM7-mediated anoxic cell death in presence of 1 uM nifedipine by propidium iodide uptake assay; format: cell-based
[25] = target: Transient receptor potential cation channel subfamily M member 7 (Rattus norvegicus) (UniProt Q925B3); experiment: Inhibition of TRPM7 in rat H9c2 cells assessed as protection against oxygen glucose deprivation-induced cell death at 0.05 to 5 uM in presence of 1 uM nifedipine; format: cell-based
Y79 = experiment: Inhibition of cell proliferation of human Y79 cells at 10 uM incubated for 48 to 96 hrs; format: functional
[26] = Inhibition of cell proliferation of mouse B16-F1 cells at 10 uM incubated for 48 to 96 hrs; format: functional
[27] = target: Transient receptor potential cation channel subfamily M member 7 (Rattus norvegicus) (UniProt Q925B3); experiment: Inhibition of TRPM7 in cultured rat retinal ganglion cells exposed to oxygen glucose deprivation condition for 3 hrs assessed as protection against TRPM7-mediated cell death at by propidium iodide uptake assay; design: scale not given: the % may be the effect or the level left

Question: Which Activity (HEK293) does the source give for `O=C(O)c1cc(=O)cc(C(=O)O)[nH]1` here?
Answer: inactive

Question: For `COc1cccc(OC)c1OCCNCC1CSc2ccccc2O1` (centres undefined), which inhibition [1] is on record?
Answer: Dose-dependent effect

Question: And the Activity (HEK293)?
Answer: inactive

Question: With `O=C1c2c(O)ccc(O)c2C(=O)c2c(NCCNCCO)ccc(NCCNCCO)c21` as the compound, how does the Activity (HEK293) read?
Answer: inactive

Question: What does the source list for `COc1ccccc1N1CCN(CC(O)COc2cccc3ccccc23)CC1` (centres undefined)?
Answer: inhibition [1]: Dose-dependent effect; Activity (HEK293): inactive

Question: For `C[n+]1cc2c3c(ccc2c2ccc4cc5c(cc4c21)OCO5)OCO3`, which Activity (HEK293) is on record?
Answer: inactive

Question: Which results are given for `Cc1ccc2c(c1)CCCN2C(=O)c1sc2ccccc2c1Cl`?
Answer: inhibition at 10 µM [2]: > 20%; inhibition (Mus musculus [3]): inactive; inhibition [4]: Active; inhibition [5]: Active; inhibition [6]: Active; inhibition at 10 µM (SW13): > 20%; Activity [7]: Non-toxic; inhibition ([1]; concentration not given here): 80%; inhibition [8]: Active; inhibition [9]: Active; inhibition [10]: Active; inhibition [11]: Active; inhibition [12]: Active; inhibition [13]: Active; inhibition [14]: Active; inhibition [15]: Active; inhibition at 10 µM (MDA-MB-231): > 20%; inhibition at 10 µM (HeLa): > 20%; inhibition [16]: Active; inhibition [17]: Active; inhibition at 10 µM [18]: > 20%; Activity (Mus musculus [19]): Non-toxic; inhibition [20]: Active; inhibition (Mus musculus [21]): Active; inhibition (Mus musculus [22]): inactive; inhibition [23]: Active; inhibition at 10 µM (MCF7): > 20%; inhibition [24]: Active; inhibition [25]: Active; inhibition at 10 µM (Y79): > 20%; inhibition at 10 µM [26]: > 20%; Activity [27]: 66%

Question: What does the source list for `Ic1ccccc1CN[C@@H]1C2CCN(CC2)[C@@H]1C(c1ccccc1)c1ccccc1` (relative stereo)?
Answer: inhibition [1]: Dose-dependent effect; Activity (HEK293): inactive

Question: For `COC(=O)C1=C(C)NC(C)=C(C(=O)OCCN(C)Cc2ccccc2)C1c1cccc([N+](=O)[O-])c1` (centres undefined), which Activity (HEK293) is on record?
Answer: inactive

Question: For `CCN(CC)CCCC(C)Nc1c2ccc(Cl)cc2nc2ccc(OC)cc12` (centres undefined), which Activity (HEK293) is on record?
Answer: inactive

Question: For `COc1ccc(OC)c(SCc2nnc(-c3ccc([N+](=O)[O-])c(C)c3)o2)c1`, which inhibition [5] is on record?
Answer: Active

Question: And the inhibition ([1]; concentration not given here)?
Answer: 80%

Question: What about the inhibition [13] of the same compound?
Answer: Active

Question: And the inhibition [14]?
Answer: Active

Question: What about the inhibition [16] of the same compound?
Answer: Active

Question: And the inhibition at 10 µM [18]?
Answer: > 20%

Question: And the inhibition [23]?
Answer: Active

Question: Which inhibition ([1]; concentration not given here) does the source give for `COC(=O)c1scc(S(=O)(=O)C(C)C)c1N/N=C(\C#N)C(=O)c1ccccc1` here?
Answer: < 30%

Question: For `CC1(C)CC(=O)c2c(SCCOC(=O)Nc3cccc(Cl)c3)sc(C#N)c2C1`, which inhibition ([1]; concentration not given here) is on record?
Answer: < 30%

Question: Which inhibition ([1]; concentration not given here) does the source give for `N#CC(C#N)=CNc1cc(C(F)(F)F)ccc1N1CCCC1` here?
Answer: 40%

Question: Which inhibition [1] does the source give for `Cc1ccc(NS(=O)(=O)c2ccc(-c3csc(C)n3)s2)c(C)c1` here?
Answer: Active

Question: With `Cc1cc(-c2nnc(C(F)(F)F)o2)ccc1NC(=S)Nc1ccc(Cl)cc1Cl` as the compound, how does the inhibition ([1]; concentration not given here) read?
Answer: 70%

Question: For `O=C(Nc1ccc(N2CCC(C(F)(F)F)CC2)nc1)c1ccc(OC(F)(F)F)cc1`, which inhibition ([1]; concentration not given here) is on record?
Answer: < 30%

Question: Which inhibition ([1]; concentration not given here) does the source give for `CC(=O)CC(O)c1ccncc1` (centres undefined) here?
Answer: < 30%

Question: Which inhibition ([1]; concentration not given here) does the source give for `CCOC(=O)C(=CNc1csc(C)c1C(=O)OC)C(=O)OCC` here?
Answer: 60%

Question: With `FC(F)(F)COc1ccc(-c2nc(-c3ccc(Cl)cc3)cs2)cn1` as the compound, how does the inhibition ([1]; concentration not given here) read?
Answer: 50%

Question: With `COc1cccc(NC(=O)Nc2nnc(C3CC3)s2)c1` as the compound, how does the inhibition ([1]; concentration not given here) read?
Answer: < 30%

Question: With `COc1cc2c(cc1OC)-c1c/c(=N\c3c(C)cc(C)cc3C)n(C)c(=O)n1CC2` as the compound, how does the inhibition [1] read?
Answer: Dose-dependent effect

Question: What about the Activity (HEK293) of the same compound?
Answer: inactive

Question: For `NCCCNc1ccc2c3c(nn2CCNCCO)-c2c(O)ccc(O)c2C(=O)c13`, which inhibition ([1]; concentration not given here) is on record?
Answer: 80%

Question: Which inhibition ([1]; concentration not given here) does the source give for `CC(c1ccco1)N(C(=O)c1sc2ccccc2c1Cl)c1ccccn1` (centres undefined) here?
Answer: < 30%
